# Columns and labels:
# [1] = system: rats subjected to 60% blood loss; assay: Rat hemorrhagic shock, 60% blood loss (Example 3); type: in vivo
# Description: Rats infused with ketone bodies were subjected to 60% blood loss for at least 1 hour, followed by return of the shed blood. Endpoint measures of neuroprotection were quantitative analysis of neuronal survival and apoptosis in cortex, hippocampus and cerebellum as well as neurologic function exam scores. The objective was to determine the effectiveness of the D-form of beta-hydroxybutyrate (D-BHB) in conjunction with melatonin in protecting the brain from ischemia and providing protection from reperfusion injury after blood return.
# The goal of the following experiments was to maintain 60% blood loss for at least three hours using a minimal amount of fluid in order to maintain viability. Sixty-percent blood loss was calculated by using the equation: Total blood volume=Animal body weight×0.06. A bolus volume of 1 ml ischemia/reperfusion protection composition per kilogram of animal body weight was given to animals after approximately 40% blood loss. Some animals only received a single 1 ml/kg bolus, while other animals received a slow infusion (100 μl/hr) to imitate an intravenous drip of solution after the bolus was given. […]
# Once rats were fully anesthesized and stabilized for a 20 min period, blood loss was begun. […] Temperature was monitored with a rectal probe. […] Animal death was recorded when blood pressure, respiration, and precordial movement ceased (see FIG. 9 for a timeline). […]
# [2] = system: hibernating ground squirrels; conditions: in vivo, ip
Compound,"survival compared with 4 M NaCl ([1]; 60% blood loss, same osmolarity, ambient temperature drift)","survival compared with NaCl, bolus followed by infusion ([1]; bolus then 100 μl/hr infusion, p-value <0.016)",transport into the heart during hibernation [2]
"C[C@@H](O)CC(=O)O [D-BHB, D-beta-hydroxybutyrate]",survived longer,lived significantly longer,–
"[13CH3][C@@H](O)[13CH2]C(=O)O [^13C-D-BHB, [2,4-^13C]D-beta-hydroxybutyrate]",–,–,efficiently transported into the heart
